The test system of the assay is control neuropathic mice. As to the kind of experiment: Pain behaviors in control neuropathic mice not expressing hM4-mCherry in the BLA. The class given is in vivo. To be noted: absence of hM4 expression, CNO 10 mg/kg, morphine as positive control. The text has this: To induce a chronic pain state, we used a modified version of the Spared Nerve Injury (SNI) model of neuropathic pain, as previously described (70). This model entails surgical section of two of the sciatic nerve branches (common peroneal and tibial branches) while sparing the third (sural branch). […] To perform this peripheral nerve injury procedure, anesthesia was induced and maintained throughout surgery with isoflurane (4% induction, 1.5% maintenance in oxygen). The left hind leg was shaved and wiped clean with alcohol and betadine. We made a 1-cm incision in the skin of the mid-dorsal thigh, approximately where the sciatic nerve trifurcates. The biceps femoris and semimembranosus muscles were gently separated from one another with blunt scissors, thereby creating a <1-cm opening between the muscle groups to expose the common peroneal, tibial, and sural branches of the sciatic nerve. Next, −2 mm of both the common peroneal and tibial nerves were transected and removed, without suturing and with care not to distend the sural nerve. The leg muscles are left uncultured and the skin was closed with tissue adhesive (3M Vetbond), followed by a Betadine application. During recovery from surgery, mice were placed under a heat lamp until awake and achieved normal balanced movement. Mice were then returned to their home cage and closely monitored over the following three days for well-being.
To evaluate mechanical reflexive sensitivity, we used a logarithmically increasing set of 8 von Frey filaments (Stoelting), ranging in gram force from 0.07- to 6.0-g (93). These filaments were applied perpendicular to the plantar hindpaw with sufficient force to cause a slight bending of the filament. […] Using the Up-Down statistical method, the 50% withdrawal mechanical threshold scores were calculated for each mouse and then averaged across the experimental groups. The response frequency was calculated as the number of positive responses out of 10 stimulations, delivered at 30-s intervals.
To evaluate affective-motivational responses evoked by thermal stimulation (81), we applied either a single, unilateral 50-μL drop of water (5, 30, or 55° C.) or acetone (evaporative cooling) to the left hindpaw, and the duration of attending behavior was collected for up to 60 s after the stimulation. […] The track was subdivided into 25 temperature zones (4.8-cm D per zone), and we assessed the temperature at the center of each zone by a K-probe thermocouple. […] A video camera placed above the track recorded the position of the mouse within the temperature zones, and videos were later analyzed using a video-tracking software (Etho-vision, Noldus) for duration of zone occupancy, zone visits, distance, velocity, and acceleration.

For the compound `CN1CC[C@]23c4c5ccc(O)c4O[C@H]2[C@@H](O)C=C[C@H]3[C@H]1C5` [Morphine], the affective-motivational behaviors entry (acetone drop) is “reduced”. Also, the reflex behaviors result (von Frey filaments) is “reduced”.

The record behind these values is US20210220489A1, “AMYGDALAR NEURAL ENSEMBLE THAT ENCODES THE UNPL[…] PAIN” (The Board of Trustees of the Leland Stanford Junior …, priority 2020, published 2021).
